Results from US9089543B2, “Anti-inflammatory composition containing macrolactin A and a derivative thereof as active ingredients” (DAEWOO PHARMACEUTICAL IND. CO., LTD., priority 2009, dated 2015).
“Also recorded” adds a separate entry of the source.

Columns and labels:
[1] = test system: IL-6 formation in RAW264.7 cells; assay: Inhibition of IL-6 formation (mouse ELISA kit) in LPS-stimulated RAW264.7 cells; type: cell-based, murine; conditions: RAW264.7, LPS
Experimental: (§1) The present inventors have confirmed the anti-inflammatory effects of the above macrolactin compounds to accomplish the present invention. In order to investigate the anti-inflammatory effects, a murine macrophage RAW264.7 cell line treated with each of the purified compounds was stimulated by LPS (0.1 μg/mL or 1.0 μg/mL, Sigma), and then the formation of inflammation-inducing substances 1) NO and 2) PEG2 and the expression of enzymes related to their formation were analyzed. The formation of 3) pro-inflammatory cytokines, TNF-α, IL-1β, IL-6 and GM-CSF were also analyzed by the same procedures.
(§2) 3) Suppression of pro-inflammatory cytokines by the present macrolactin compounds was determined by using a mouse ELISA kit (KOMA Biotech).
(§3) RAW264.7, a murine macrophage cell line, was obtained from Korean Cell Line Bank (KCLB). It was cultured in Dulvecco's modified Eagle's medium (DMEM, LONZA) containing 10% fetal bovine serum (FBS, LONZA) and 1% penicillin/streptomycin (Sigma) in an incubator at 37° C. under 5% CO2 and then sub-cultured when the cell density reached 80%. After RAW264.7 cells were cultured for 24 hours, MA (1-100 μM), MMA (10 μM), SMA (10 μM) and hydrocortisone (10 μM), which is a well-known substance having anti-inflammatory activity, were added. One hour after the addition, LPS (0.1 or 1.0 μg/ml, Sigma) was added to the mixture, which was then cultured for 8 or 16 hours. Dimethyl sulfoxide (hereinafter, “DMSO”) was used as a negative control, while LPS (0.1 or 1.0 μg/ml, Sigma) was used as a positive control without adding the macrolactin compounds.

iNOS mRNA = assay: Expression of iNOS mRNA by real-time PCR in LPS-stimulated RAW264.7 cells; type: cell-based, murine; conditions: RAW264.7, LPS 0.1 μg/ml, 16 hours; for inhibition of expression of iNOS mRNA: real-time PCR; for inhibition of iNOS mRNA expression compared to hydrocortisone: relative to hydrocortisone (10 μM)
Experimental: as §3
The effect of the present macrolactin compounds on the expression of intracellular inflammatory factors, iNOS and COX-2 mRNA was investigated. Murine macrophage RAW264.7 cells adjusted to 1×10^5 cells/well were cultured in a 6-well plate for 24 hours under the conditions mentioned in Example 2 and then further cultured for 16 hours after being treated with the present macrolactin compounds and LPS (0.1 μg/ml, Sigma). Total RNA of the cultured cells was isolated by Trizol reagent (Sigma) under RNase-free conditions. A cDNA synthesis kit (TAKARA) was used to obtain a template for PCR using the separated total RNA. To the mixture of 1 μl of Oligo dT Primer (50 μM), 1 μl of dNTP Mixture (10 mM each) and 2 μg of the template RNA, RNase-free dH2O was added to adjust the total volume to 10 μl. The mixture was maintained at 65° C. for 5 minutes and then in ice for 2 minutes. To the mixture of 10 μl of the mixture, 4 μl of 5× PrimeScript™ buffer, 0.5 μl of RNase inhibitor (40 U/μl), and 0.5 μl of PrimeScript™ RTase (200 U/μl), RNase-free dH2O was added to adjust the total volume to 20 μl. The mixture was reacted at 42° C. for 30 minutes to synthesize cDNA.
(§4) The extent of iNOS and COX-2 mRNA expression of the mixture was determined by using a real-time gene amplifier (Corbett Life Science Rotor-gene 6000). The operating condition of the real-time gene amplifier was as follows: initial denaturation started at 95° C. for 5 minutes and was then repeated 50 times at 94° C. for 30 seconds, at 57° C. for 30 seconds and 72° C. for 30 seconds. When the mRNA expressions of the samples were compared with each other, that of the housekeeping gene was determined at the same time and then the relative quantity was calculated. By compensating the amount of RNA for the measured value of the housekeeping gene, the amount of mRNA produced in each sample was calculated to Ct (Threshold cycle) value.

COX-2 protein = assay: Formation of COX-2 protein by western blot in LPS-stimulated RAW264.7 cells; type: cell-based, murine; conditions: RAW264.7, LPS 0.1 μg/ml, 16 hours
Experimental: as §3
(§5) The effect of the present macrolactin compounds on the formation of intracellular inflammatory factor, iNOS and COX-2 protein was investigated. Murine macrophage RAW264.7 cells adjusted to 1×10^6 cells/dish were cultured in a 100 mm dish for 24 hours under the conditions mentioned in Example 2 and then further cultured for 16 hours after being treated with the present macrolactin compounds and LPS (0.1 μg/ml, Sigma). The cells were washed 2-3 times with cold PBS and then collected. 100 μl of 50 mM Tris-HCl buffer, pH7.5 (0.1 M KCl, 1 mM EDTA, 1 mM DTT, 0.2 mM PMSF) were added to the collected cells, which were lysed by using liquid nitrogen. The lysate was centrifuged at 4° C. for 10 minutes at 13,000 rpm to collect the supernatant. Protein was quantitatively analyzed by the Bradford method. 50 μg of the protein was subjected to sodium dodecyl sulfate-polyacrylamide gel electrophoresis (SDS-PAGE). The SDS-PAGE gel was transferred to nitrocellulose membrane (Amersham) at 50 V for 2 hours. The nitrocellulose membrane was washed twice with 1× Tris buffered saline (TBS; 0.1 M NaCl, 10 mM Tris-HCl), to which was added 3% gelatin solution for blocking non-specific protein reaction and then reacted at room temperature for 1 hour. […]

[2] = test system: GM-CSF formation in RAW264.7 cells; assay: Inhibition of GM-CSF formation (mouse ELISA kit) in LPS-stimulated RAW264.7 cells; type: cell-based, murine; conditions: RAW264.7, LPS
Experimental: as §1, §2
(§6) RAW264.7, a murine macrophage cell line, was obtained from Korean Cell Line Bank (KCLB). It was cultured in Dulvecco's modified Eagle's medium (DMEM, LONZA) containing 10% fetal bovine serum (FBS, LONZA) and 1% penicillin/streptomycin (Sigma) in an incubator at 37° C. under 5% CO2 and then sub-cultured when the cell density reached 80%. After RAW264.7 cells were cultured for 24 hours, MA (1-100 μM), MMA (10 μM), SMA (10 μM) and hydrocortisone (10 μM), which is a well-known substance having anti-inflammatory activity, were added. One hour after the addition, LPS (0.1 or 1.0 μg/ml, Sigma) was added to the mixture, which was then cultured for 8 or 16 hours. […]

[3] = test system: vancomycin-resistant Enterococci (VRE), methicillin-resistant Staphylococcus aureus (MRSA) and Burkholderia cepacia; conditions: against VRE, compounds from Bacillus subtilis DSM 16696; cited from earlier work
[4] = test system: NO formation in RAW264.7 cells; assay: Inhibition effect on NO formation (Griess reaction) in LPS-stimulated RAW264.7 cells; type: cell-based, murine; conditions: RAW264.7, LPS 0.1 μg/ml, 16 hours; MA 1-100 μM, MMA, SMA, hydrocortisone 10 μM; vs control treated with LPS only
Experimental: as §3
NO concentration in cell culture was determined by using a Nitrate/Nitrite colorimetric assay Kit (Cayman). Murine macrophage RAW264.7 cells adjusted to 1×10^5 cells/well were cultured in a 6-well plate for 24 hours under the conditions mentioned in Example 2, and then further cultured for 16 hours after being treated with the present macrolactin compounds and LPS (0.1 μg/ml, Sigma). The cultured media were treated with Griess reagent R1 (sulfanilamide) and then Griess reagent R2 (N-(1-Naphthyl)-ethylenediamine) in a 96-well plate provided by the manufacturer, and then detected the formation of purple azo group from nitrite. The amount of produced NO was calculated using the calibration curve which had been made through the standard solution provided by the manufacturer at an absorbance of 540 nm in a UV spectrometer.

[5] = test system: murine macrophage RAW264.7; assay: Cytotoxicity by MTT analysis; type: cell-based; conditions: RAW264.7, MTT, 16 hours
Experimental: as §3
MTT analysis was used to investigate the cytotoxic effects on murine macrophage RAW264.7 of the present macrolactin compounds. The cells adjusted to 4×10^4 cells/well were cultured in a 96-well plate for 24 hours under the conditions mentioned in Example 2 and then further cultured for 16 hours after being treated with the present macrolactin compounds. After the medium was removed, 100 μl of MTT solution (2 mg/ml PBS) was added, and then the mixture was cultured in an incubator at 37° C. under 5% CO2 for 4 hours. After the MTT solution was removed, 100 μl of DMSO was added, and then the mixture was shake-cultured for 30 minutes in the dark. After the culture, the amount of free formazan was determined at 540 nm by using an ELISA reader.

COX-2 mRNA = assay: Expression of COX-2 mRNA by real-time PCR in LPS-stimulated RAW264.7 cells; type: cell-based, murine; conditions: RAW264.7, LPS 0.1 μg/ml, 16 hours
Experimental: as §3
The effect of the present macrolactin compounds on the expression of intracellular inflammatory factors, iNOS and COX-2 mRNA was investigated. Murine macrophage RAW264.7 cells adjusted to 1×10^5 cells/well were cultured in a 6-well plate for 24 hours under the conditions mentioned in Example 2 and then further cultured for 16 hours after being treated with the present macrolactin compounds and LPS (0.1 μg/ml, Sigma). Total RNA of the cultured cells was isolated by Trizol reagent (Sigma) under RNase-free conditions. A cDNA synthesis kit (TAKARA) was used to obtain a template for PCR using the separated total RNA. […]
as §4, with “The operating condition of the real-time gene amplifier was as follows: initial denaturation started at 95° C. for 5 minutes and was then repeated 50 times at 94° C. for 30 seconds, at 57° C. for 30 seconds and 72° C. for 30 seconds.” left out

iNOS protein = assay: Formation of iNOS protein by western blot in LPS-stimulated RAW264.7 cells; type: cell-based, murine; conditions: RAW264.7, LPS 0.1 μg/ml, 16 hours
Experimental: as §3, §5

[6] = test system: IL-1β formation in RAW264.7 cells; assay: Inhibition of IL-1β formation (mouse ELISA kit) in LPS-stimulated RAW264.7 cells; type: cell-based, murine; conditions: RAW264.7, LPS
Experimental: as §1, §2, §6

[7] = test system: PGE2 formation in RAW264.7 cells; assay: Inhibition effect on PGE2 formation (EIA kit) in LPS-stimulated RAW264.7 cells; type: cell-based, murine; conditions: RAW264.7, LPS 0.1 μg/ml, 16 hours; vs control treated with LPS only
Experimental: as §3
The amount of formed PGE2, an intracellular […] factor, was determined by using an Amersham prostaglandin E2 biotrak Enzymeimmunoassay (EIA) system Kit (GE Healthcare). Murine macrophage RAW264.7 cells adjusted to 2×10^4 cells/well were cultured in a 96-well plate for 24 hours under the conditions mentioned in Example 2 and then further cultured for 16 hours after being treated with the present macrolactin compounds and LPS (0.1 μg/ml, Sigma). The amount of produced PGE2 was calculated using the calibration curve which had been made through the standard solution provided by the manufacturer at an absorbance of 450 nm in a UV spectrometer. The r^2 value of the calibration curve against the standard substance was above 0.99.

[8] = test system: TNF-α formation in RAW264.7 cells; assay: Inhibition of TNF-α formation (mouse ELISA kit) in LPS-stimulated RAW264.7 cells; type: cell-based, murine; conditions: RAW264.7, LPS; for inhibition of TNF-α formation: vs control treated with LPS only
Experimental: as §1, §2, §3

| Compound | inhibition of IL-6 formation [1] | inhibition of expression of iNOS mRNA (iNOS mRNA) | inhibition of iNOS mRNA expression compared to hydrocortisone (iNOS mRNA) | inhibition of formation of COX-2 protein (COX-2 protein) | inhibition of GM-CSF formation [2] | anti-bacterial activity [3] | inhibition of NO formation [4] | cytotoxicity compared to hydrocortisone [5] | inhibition of expression of COX-2 mRNA (COX-2 mRNA) | inhibition of formation of iNOS protein (iNOS protein) | inhibition of IL-1β formation [6] | inhibition of PGE2 formation [7] | inhibition of TNF-α formation [8] | inhibition effect on TNF-α formation compared to hydrocortisone / control substances ([8]; relative to hydrocortisone) |
| --- | --- | --- | --- | --- | --- | --- | --- | --- | --- | --- | --- | --- | --- | --- |
| C[C@@H]1CCC/C=C/C=C/[C@H](O)C[C@@H](O)C/C=C\C=C\[C@@H](OC(=O)CCC(=O)O)C/C=C/C=C\C(=O)O1 [SMA, 7-O-succinyl macrolactin A] | strongly inhibited | strongly suppressed; also recorded: strongly inhibited | comparable to or superior to that of hydrocortisone | strongly inhibited | strongly inhibited | superior anti-bacterial activity | strongly inhibited; also recorded: low inhibition activities | lower cytotoxicities | strongly inhibited | strongly inhibited | strongly inhibited | strongly inhibited | inhibited |  |
| CC1CCC/C=C/C=C/[C@H](O)C[C@@H](O)C/C=C\C=C\[C@@H](O)C/C=C/C=C\C(=O)O1 (stereo partly drawn) [MA, macrolactin A] | strongly inhibited | strongly suppressed; also recorded: strongly inhibited | comparable to or superior to that of hydrocortisone | strongly inhibited | strongly inhibited | anti-bacterial effect against MRSA only | strongly inhibited | lower cytotoxicities | strongly inhibited | strongly inhibited | strongly inhibited | strongly inhibited | inhibited | especially superior inhibition effect |
| C[C@@H]1CCC/C=C/C=C/[C@H](O)C[C@@H](O)C/C=C\C=C\[C@@H](OC(=O)CC(=O)O)C/C=C/C=C\C(=O)O1 [MMA, 7-O-malonyl macrolactin A] | strongly inhibited | strongly suppressed; also recorded: strongly inhibited | comparable to or superior to that of hydrocortisone | strongly inhibited |  | superior anti-bacterial activity | strongly inhibited; also recorded: low inhibition activities | lower cytotoxicities | strongly inhibited | strongly inhibited |  | strongly inhibited | inhibited |  |
| C[C@]12CCC(=O)C=C1CC[C@@H]1[C@@H]2[C@@H](O)C[C@@]2(C)[C@H]1CC[C@]2(O)C(=O)CO [hydrocortisone, reference compound] |  |  |  |  |  |  | strongly inhibited |  |  |  |  |  |  |  |
